For this test, the target named is Pin1 (GST-Pin1) (Homo sapiens, UniProt Q13526). Put plainly: Fluorescence polarization (FP) assay, binding to Pin1. As to conditions: competition with fluorescein-labeled peptide probe, 12 hours pre-incubation at 4° C., Kenakin Ki equation. On the technique in general: Polarisation of emitted light reports the rotation of a fluorescent probe.

Data on 19 compounds can be found in patent US20210238225A1, “PEPTIDOMIMETIC INHIBITORS OF THE PEPTIDYL-PROLYL CIS/TRANS ISOMERASE (PIN1)” (DANA-FARBER CANCER INSTITUTE, INC., priority 2018, published 2021).

SMILES strings stand for the structures. Like-named read-outs stand apart in the source and are kept apart here. Non-standard residues stand in square brackets, D forms with d. Residues, ends and D or L forms follow the SMILES beside them. *: point of attachment. alloThr(PO3H2) = C[C@H](OP(=O)(O)O)[C@H](N)C(=O)O; Phe(4-CONH2) = NC(=O)c1ccc(C[C@H](N)C(=O)O)cc1; Bpa = N[C@@H](Cc1ccc(C(=O)c2ccccc2)cc1)C(=O)O; 2Nal = N[C@@H](Cc1ccc2ccccc2c1)C(=O)O; Met(O2) = CS(=O)(=O)CC[C@H](N)C(=O)O; β3hE = N[C@@H](CCC(=O)O)CC(=O)O; Cha = N[C@@H](CC1CCCCC1)C(=O)O; Cit = NC(=O)NCCC[C@H](N)C(=O)O; aThr = C[C@H](O)[C@H](N)C(=O)O; Pip = O=C(O)[C@@H]1CCCCN1; Ac6c = NC1(C(=O)O)CCCCC1; 2Abz = Nc1ccccc1C(=O)O; ClAc = O=C(CCl)* Bounds are passed on as bounds.

Chain of Pin1 (GST-Pin1) (Q13526 whole entry): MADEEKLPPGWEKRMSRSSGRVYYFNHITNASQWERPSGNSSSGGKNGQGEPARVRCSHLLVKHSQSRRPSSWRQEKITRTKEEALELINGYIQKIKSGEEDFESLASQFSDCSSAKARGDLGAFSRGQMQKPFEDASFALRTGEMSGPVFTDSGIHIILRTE

With `COC(=O)CC[C@H](NC(=O)CCl)C(=O)N1CCCC[C@H]1C(=O)N[C@@H](Cc1c[nH]c2ccccc12)C(=O)N[C@@H](Cc1ccc(O)cc1)C(=O)NCc1ccc(C)cc1` (single isomer, unassigned) [Compound 11-26], the Ki (read-out: Ki, μM (FP Assay)) is more than 10 µM.

Take `COC(=O)CC[C@H](NC(=O)CCl)C(=O)N1CCCC[C@H]1C(=O)N[C@@H](Cc1c[nH]c2ccccc12)C(=O)N[C@@H](CCCNC(N)=O)C(N)=O` [Compound 2, Methyl (S)-5-((S)-2-(((S)-1-(((S)-1-amino-1-oxo-5-ureidopentan-2-yl)amino)-3-(1H-indol-3-yl)-1-oxopropan-2-yl)carbamoyl)piperidin-1-yl)-4-(2-chloroacetamido)-5-oxopentanoate] (ClAc-E(OMe)[Pip]W[Cit]-NH2): the inhibition constant (Ki) (read-out: Ki, μM (FP Assay)) came to 0.074 µM.

In the case of `NC(=O)CC[C@H](NC(=O)[C@H](Cc1ccc2ccccc2c1)NC(=O)[C@@H]1CCCCN1C(=O)[C@@H](CC(=O)O)NC(=O)CCl)C(N)=O` [Compound 2-1, (R)-3-(2-Chloroacetamido)-4-((S)-2-(((S)-1-(((S)-1,5-diamino-1,5-dioxopentan-2-yl)amino)-3-(naphthalen-2-yl)-1-oxopropan-2-yl)carbamoyl)piperidin-1-yl)-4-oxobutanoic acid] (ClAc-[dD][Pip][2Nal]Q-NH2), for the setting “read-out: Ki, μM (FP Assay)”, the inhibitory constant (Ki) was more than 10 µM.

With `NC(=O)CC[C@H](NC(=O)[C@H](Cc1ccc2ccccc2c1)NC(=O)[C@@H]1CCCCN1C(=O)[C@H](CC(=O)O)NC(=O)CCl)C(N)=O` [Compound 2-2, (S)-3-(2-Chloroacetamido)-4-((S)-2-(((S)-1-(((S)-1,5-diamino-1,5-dioxopentan-2-yl)amino)-3-(naphthalen-2-yl)-1-oxopropan-2-yl)carbamoyl)piperidin-1-yl)-4-oxobutanoic acid] (ClAc-D[Pip][2Nal]Q-NH2), where the note is “read-out: Ki, μM (FP Assay)”, the Ki is more than 10 µM.

For the compound `CS(=O)(=O)CC[C@H](NC(=O)CCl)C(=O)N1CCCC[C@H]1C(=O)N[C@@H](Cc1ccc2ccccc2c1)C(=O)N[C@@H](CCC(N)=O)C(N)=O` [Compound 2-3, (S)-2-((S)-2-((S)-1-((S)-2-(2-Chloroacetamido)-4-(methylsulfonyl)butanoyl)piperidine-2-carboxamido)-3-(naphthalen-2-yl)propanamido)pentanediamide] (ClAc-[Met(O2)][Pip][2Nal]Q-NH2), the inhibition constant Ki (read-out: Ki, μM (FP Assay)) was more than 10 µM.

For `C[C@H](OP(=O)(O)O)[C@H](NC(=O)CCl)C(=O)N1CCCC[C@H]1C(=O)N[C@@H](Cc1ccc2ccccc2c1)C(=O)N[C@@H](CCC(N)=O)C(N)=O` [Compound 2-4, (2S,3S)-3-(2-Chloroacetamido)-4-((S)-2-(((S)-1-(((S)-1,5-diamino-1,5-dioxopentan-2-yl)amino)-3-(naphthalen-2-yl)-1-oxopropan-2-yl)carbamoyl)piperidin-1-yl)-4-oxobutan-2-yl dihydrogen phosphate] (ClAc-[alloThr(PO3H2)][Pip][2Nal]Q-NH2), for the setting “read-out: Ki, μM (FP Assay)”, the inhibitory constant (Ki) stood at 1.24 µM.

Take `C[C@H](OP(=O)(O)O)[C@H](NC(=O)CCl)C(=O)N1CCCC[C@H]1C(=O)N[C@@H](Cc1ccc2ccccc2c1)C(=O)N[C@@H](CCCNC(=N)N)C(N)=O` [Compound 2-5, (2S,3S)-4-((S)-2-(((S)-1-(((S)-1-Amino-5-guanidino-1-oxopentan-2-yl)amino)-3-(naphthalen-2-yl)-1-oxopropan-2-yl)carbamoyl)piperidin-1-yl)-3-(2-chloroacetamido)-4-oxobutan-2-yl dihydrogen phosphate] (ClAc-[alloThr(PO3H2)][Pip][2Nal]R-NH2): for the setting “read-out: Ki, μM (FP Assay)”, the Ki turned out to be 0.13 µM.

Turning to `C[C@H](O)[C@H](NC(=O)[C@H](Cc1ccc2ccccc2c1)NC(=O)[C@@H]1CCCCN1C(=O)[C@H](CCC(=O)O)NC(=O)CCl)C(N)=O` [Compound 2-7, (S)-5-((S)-2-(((S)-1-(((2S,3S)-1-Amino-3-hydroxy-1-oxobutan-2-yl)amino)-3-(naphthalen-2-yl)-1-oxopropan-2-yl)carbamoyl)piperidin-1-yl)-4-(2-chloroacetamido)-5-oxopentanoic acid] (ClAc-E[Pip][2Nal][aThr]-NH2), the Ki (read-out: Ki, μM (FP Assay)) amounted to 0.3 µM.

`NC(=O)C[C@H](NC(=O)[C@H](Cc1ccc2ccccc2c1)NC(=O)[C@@H]1CCCCN1C(=O)[C@H](CCC(=O)O)NC(=O)CCl)C(N)=O` [Compound 2-8, (S)-4-(2-Chloroacetamido)-5-((S)-2-(((S)-1-(((S)-1,4-diamino-1,4-dioxobutan-2-yl)amino)-3-(naphthalen-2-yl)-1-oxopropan-2-yl)carbamoyl)piperidin-1-yl)-5-oxopentanoic acid] (ClAc-E[Pip][2Nal]N-NH2): the inhibition constant (Ki) (read-out: Ki, μM (FP Assay)) was found to be 0.13 µM.

For the compound `NC(=O)c1ccc(C[C@H](NC(=O)[C@H](Cc2ccc3ccccc3c2)NC(=O)[C@@H]2CCCCN2C(=O)[C@H](CCC(=O)O)NC(=O)CCl)C(N)=O)cc1` [Compound 2-9, (S)-5-((S)-2-(((S)-1-(((S)-1-Amino-3-(4-carbamoylphenyl)-1-oxopropan-2-yl)amino)-3-(naphthalen-2-yl)-1-oxopropan-2-yl)carbamoyl)piperidin-1-yl)-4-(2-chloroacetamido)-5-oxopentanoic acid] (ClAc-E[Pip][2Nal][Phe(4-CONH2)]-NH2), the Ki (read-out: Ki, μM (FP Assay)) was 0.33 µM.

In turn, `NC(=O)NCCC[C@H](NC(=O)[C@H](Cc1ccc2ccccc2c1)NC(=O)C1(NC(=O)[C@H](CCC(=O)O)NC(=O)CCl)CCCCC1)C(N)=O` [Compound 2-10, (S)-5-((1-(((S)-1-(((S)-1-Amino-1-oxo-5-ureidopentan-2-yl)amino)-3-(naphthalen-2-yl)-1-oxopropan-2-yl)carbamoyl)cyclohexyl)amino)-4-(2-chloroacetamido)-5-oxopentanoic acid] (ClAc-E[Ac6c][2Nal][Cit]-NH2) had an inhibitory constant (Ki) (Ki, μM (FP Assay)) of more than 10 µM.

Regarding `NC(=O)NCCC[C@H](NC(=O)[C@H](Cc1ccc2ccccc2c1)NC(=O)[C@@H]1CCCCN1C(=O)C[C@H](CCC(=O)O)NC(=O)CCl)C(N)=O` [Compound 2-12, (S)-6-((S)-2-(((S)-1-(((S)-1-Amino-1-oxo-5-ureidopentan-2-yl)amino)-3-(naphthalen-2-yl)-1-oxopropan-2-yl)carbamoyl)piperidin-1-yl)-4-(2-chloroacetamido)-6-oxohexanoic acid] (ClAc-[β3hE][Pip][2Nal][Cit]-NH2), the inhibitory constant (Ki) (read-out: Ki, μM (FP Assay)) was determined as 0.106 µM.

With `NC(=O)[C@H](Cc1c[nH]c2ccccc12)NC(=O)[C@H](Cc1ccc2ccccc2c1)NC(=O)[C@@H]1CCCCN1C(=O)[C@H](CCC(=O)O)NC(=O)CCl` [Compound 2-13, (S)-5-((S)-2-(((S)-1-(((S)-1-Amino-3-(1H-indol-3-yl)-1-oxopropan-2-yl)amino)-3-(naphthalen-2-yl)-1-oxopropan-2-yl)carbamoyl)piperidin-1-yl)-4-(2-chloroacetamido)-5-oxopentanoic acid] (ClAc-E[Pip][2Nal]W-NH2), the Ki (read-out: Ki, μM (FP Assay)) worked out at 0.13 µM.

Consider `CS(=O)(=O)CC[C@H](NC(=O)CCl)C(=O)N1CCCC[C@H]1C(=O)N[C@@H](Cc1ccc2ccccc2c1)C(=O)N[C@@H](CCCNC(N)=O)C(N)=O` [Compound 2-14, (S)—N—((S)-1-(((S)-1-Amino-1-oxo-5-ureidopentan-2-yl)amino)-3-(naphthalen-2-yl)-1-oxopropan-2-yl)-1-((S)-2-(2-chloroacetamido)-4-(methylsulfonyl)butanoyl)piperidine-2-carboxamide] (ClAc-[Met(O2)][Pip][2Nal][Cit]-NH2), for which the Ki (read-out: Ki, μM (FP Assay)) was 0.13 µM.

In the case of `NC(=O)NCCC[C@H](NC(=O)[C@H](Cc1ccc2ccccc2c1)NC(=O)[C@H](CC1CCCCC1)NC(=O)[C@H](CCC(=O)O)NC(=O)CCl)C(N)=O` [Compound 2-15, (6S,9S,12S,15S)-1-Amino-6-carbamoyl-15-(2-chloroacetamido)-12-(cyclohexylmethyl)-9-(naphthalen-2-ylmethyl)-1,8,11,14-tetraoxo-2,7,10,13-tetraazaoctadecan-18-oic acid] (ClAc-E[Cha][2Nal][Cit]-NH2), the Ki (Ki, μM (FP Assay)) is more than 10 µM.

As for `NC(=O)NCCC[C@H](NC(=O)[C@H](Cc1ccc2ccccc2c1)NC(=O)c1ccccc1NC(=O)[C@H](CCC(=O)O)NC(=O)CCl)C(N)=O` [Compound 2-16, (S)-5-((2-(((S)-1-(((S)-1-Amino-1-oxo-5-ureidopentan-2-yl)amino)-3-(naphthalen-2-yl)-1-oxopropan-2-yl)carbamoyl)phenyl)amino)-4-(2-chloroacetamido)-5-oxopentanoic acid] (ClAc-E[2Abz][2Nal][Cit]-NH2), the Ki (read-out: Ki, μM (FP Assay)) was more than 10 µM.

For `NC(=O)NCCC[C@H](NC(=O)[C@H](Cc1ccc(C(=O)c2ccccc2)cc1)NC(=O)[C@@H]1CCCCN1C(=O)[C@H](CCC(=O)O)NC(=O)CCl)C(N)=O` [Compound 2-17, (S)-5-((S)-2-(((S)-1-(((S)-1-Amino-1-oxo-5-ureidopentan-2-yl)amino)-3-(4-benzoylphenyl)-1-oxopropan-2-yl)carbamoyl)piperidin-1-yl)-4-(2-chloroacetamido)-5-oxopentanoic acid] (ClAc-E[Pip][Bpa][Cit]-NH2), for the setting “read-out: Ki, μM (FP Assay)”, the Ki is 0.11 µM.

Take `COC(=O)CC[C@H](NC(=O)CCl)C(=O)N1CCCC[C@H]1C(=O)N[C@@H](Cc1ccc2ccccc2c1)C(=O)N[C@@H](CCCNC(N)=O)C(N)=O` [Compound 2-18, Methyl (S)-5-((S)-2-(((S)-1-(((S)-1-amino-1-oxo-5-ureidopentan-2-yl)amino)-3-(naphthalen-2-yl)-1-oxopropan-2-yl)carbamoyl)piperidin-1-yl)-4-(2-chloroacetamido)-5-oxopentanoate] (ClAc-E(OMe)[Pip][2Nal][Cit]-NH2): the inhibitory constant (Ki) (read-out: Ki, μM (FP Assay)) was found to be 0.14 µM.

As to `CC(=O)N[C@@H](CCC(=O)O)C(=O)N1CCCC[C@H]1C(=O)N[C@@H](Cc1ccc2ccccc2c1)C(=O)N[C@@H](CCCNC(N)=O)C(N)=O` [Compound 2-19, (S)-4-Acetamido-5-((S)-2-(((S)-1-(((S)-1-amino-1-oxo-5-ureidopentan-2-yl)amino)-3-(naphthalen-2-yl)-1-oxopropan-2-yl)carbamoyl)piperidin-1-yl)-5-oxopentanoic acid] (Ac-E[Pip][2Nal][Cit]-NH2), the Ki (read-out: Ki, μM (FP Assay)) was more than 10 µM.

What is called Ki is the dissociation constant of the complex between target and ligand, obtained from inhibition or displacement.
